Assay: Solubility of the sunscreen active in the preferred non-polar solvents
Format: physicochemical
Conditions: ethylferulate by itself, without lubricating wax as cosolvent
Excerpt: Thus, this embodiment of the present invention solves a significant problem which the prior art has heretofore been unable to overcome without emulsification, namely, the poor solubility of ethylferulate and other polar solid organic sunscreen actives in non-polar solvents, which causes difficulties in formulating sunscreen products in non-emulsified systems.

CCOC(=O)/C=C/c1ccc(O)c(OC)c1 [ethylferulate, ethyl ester of ferulic acid]
solubility in the preferred solvents: not soluble to any significant extent

Reference: US20010055573A1, “Delivery systems for active ingredients including sunscreen actives and methods of making same” (Shamrock Technologies, priority 1999, published 2001)
